Drawing on ChEMBL document CHEMBL1909046, “DrugMatrix in vitro pharmacology data”, this text covers IC50 and Ki for five molecules.

A word on the IC50: it is the concentration that inhibits the measured activity by half. A higher IC50 goes with weaker potency in that assay. Usually Ki stands for a dissociation constant, usually derived from enzyme kinetics or from competition with a known ligand.

Assay [1] deals with T1, Cytochrome P450 1A2 (Homo sapiens, UniProt P05177).
T1 sequence (P05177 whole entry): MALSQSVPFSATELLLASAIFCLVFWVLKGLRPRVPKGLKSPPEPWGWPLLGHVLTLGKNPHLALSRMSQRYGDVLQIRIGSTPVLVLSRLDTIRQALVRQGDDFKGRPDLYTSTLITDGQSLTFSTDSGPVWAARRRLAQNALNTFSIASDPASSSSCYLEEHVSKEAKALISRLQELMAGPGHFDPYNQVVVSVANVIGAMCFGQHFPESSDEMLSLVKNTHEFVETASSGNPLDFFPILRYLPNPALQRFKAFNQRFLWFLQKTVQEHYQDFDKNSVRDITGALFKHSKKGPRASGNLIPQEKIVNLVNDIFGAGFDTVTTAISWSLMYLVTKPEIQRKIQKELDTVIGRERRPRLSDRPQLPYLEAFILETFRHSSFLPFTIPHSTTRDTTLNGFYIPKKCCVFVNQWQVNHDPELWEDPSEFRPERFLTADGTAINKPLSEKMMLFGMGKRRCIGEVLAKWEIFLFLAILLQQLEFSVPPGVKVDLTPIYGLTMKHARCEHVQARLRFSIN

Assay [2] concerns the target Cytochrome P450 3A4 (Homo sapiens, UniProt P08684).
For assay [3], the target named is T2, Androgen receptor (Rattus norvegicus, UniProt P15207).
T2 sequence (P15207 whole entry): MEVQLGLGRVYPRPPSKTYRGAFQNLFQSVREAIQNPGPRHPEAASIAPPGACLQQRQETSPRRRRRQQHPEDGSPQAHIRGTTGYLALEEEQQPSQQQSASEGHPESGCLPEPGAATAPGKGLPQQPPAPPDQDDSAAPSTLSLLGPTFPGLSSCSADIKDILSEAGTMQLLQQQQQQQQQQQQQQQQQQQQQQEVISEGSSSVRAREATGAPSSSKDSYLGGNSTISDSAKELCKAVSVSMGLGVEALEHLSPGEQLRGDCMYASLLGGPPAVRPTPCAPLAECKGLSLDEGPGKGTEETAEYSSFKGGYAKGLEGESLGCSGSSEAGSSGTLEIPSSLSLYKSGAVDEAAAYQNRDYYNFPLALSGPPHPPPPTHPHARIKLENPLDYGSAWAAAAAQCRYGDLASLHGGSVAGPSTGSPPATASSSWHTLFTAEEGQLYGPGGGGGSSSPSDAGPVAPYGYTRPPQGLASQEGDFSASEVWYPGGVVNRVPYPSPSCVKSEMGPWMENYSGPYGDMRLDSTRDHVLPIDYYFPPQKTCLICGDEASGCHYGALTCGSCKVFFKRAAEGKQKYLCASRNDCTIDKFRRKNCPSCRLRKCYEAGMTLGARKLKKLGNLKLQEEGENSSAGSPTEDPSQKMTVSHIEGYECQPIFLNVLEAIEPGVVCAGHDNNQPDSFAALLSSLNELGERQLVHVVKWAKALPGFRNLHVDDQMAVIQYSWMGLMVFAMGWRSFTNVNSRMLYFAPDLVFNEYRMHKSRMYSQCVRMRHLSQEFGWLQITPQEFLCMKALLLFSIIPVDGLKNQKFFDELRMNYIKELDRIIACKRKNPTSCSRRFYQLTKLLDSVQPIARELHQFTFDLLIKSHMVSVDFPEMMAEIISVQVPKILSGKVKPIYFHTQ

The target in assay [4] is T3, Glucocorticoid receptor (Homo sapiens, UniProt P04150).
T3 sequence (P04150 whole entry): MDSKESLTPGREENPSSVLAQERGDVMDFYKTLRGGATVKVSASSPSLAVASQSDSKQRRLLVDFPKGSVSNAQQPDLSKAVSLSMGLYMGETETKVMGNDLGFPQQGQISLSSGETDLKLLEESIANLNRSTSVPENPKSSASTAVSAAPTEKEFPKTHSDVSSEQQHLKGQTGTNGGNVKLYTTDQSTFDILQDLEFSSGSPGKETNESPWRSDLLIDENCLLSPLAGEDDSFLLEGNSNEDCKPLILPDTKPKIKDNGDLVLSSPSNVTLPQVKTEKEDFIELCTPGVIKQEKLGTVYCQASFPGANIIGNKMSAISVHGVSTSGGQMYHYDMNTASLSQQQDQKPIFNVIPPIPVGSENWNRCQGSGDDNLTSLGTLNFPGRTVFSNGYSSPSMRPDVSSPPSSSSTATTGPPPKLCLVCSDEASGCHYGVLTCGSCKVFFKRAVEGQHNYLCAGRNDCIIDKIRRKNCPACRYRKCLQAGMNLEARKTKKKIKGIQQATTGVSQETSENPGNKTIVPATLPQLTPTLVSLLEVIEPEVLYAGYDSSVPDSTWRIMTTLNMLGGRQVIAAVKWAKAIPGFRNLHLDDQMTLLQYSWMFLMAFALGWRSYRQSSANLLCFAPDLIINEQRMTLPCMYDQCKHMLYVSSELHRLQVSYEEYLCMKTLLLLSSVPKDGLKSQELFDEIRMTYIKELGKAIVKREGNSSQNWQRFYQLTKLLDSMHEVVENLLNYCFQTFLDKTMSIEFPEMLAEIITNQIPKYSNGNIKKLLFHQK
Briefly: biochemical.

Cytochrome P450 3A4, sequence (P08684 whole entry): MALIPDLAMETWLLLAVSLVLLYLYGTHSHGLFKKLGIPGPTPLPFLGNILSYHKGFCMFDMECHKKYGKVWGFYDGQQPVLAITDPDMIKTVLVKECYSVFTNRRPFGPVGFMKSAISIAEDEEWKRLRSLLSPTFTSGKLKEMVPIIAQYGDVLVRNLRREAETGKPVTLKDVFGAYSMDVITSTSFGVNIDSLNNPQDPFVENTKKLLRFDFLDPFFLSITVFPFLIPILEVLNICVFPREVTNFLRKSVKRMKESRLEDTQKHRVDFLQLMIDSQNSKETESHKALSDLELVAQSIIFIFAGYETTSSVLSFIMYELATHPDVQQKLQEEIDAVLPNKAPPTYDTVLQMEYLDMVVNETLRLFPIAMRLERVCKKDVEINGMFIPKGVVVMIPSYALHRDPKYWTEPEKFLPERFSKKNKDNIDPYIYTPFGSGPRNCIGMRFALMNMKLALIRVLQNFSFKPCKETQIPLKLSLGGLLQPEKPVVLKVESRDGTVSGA

Regarding `Cc1ccc2cc3c(ccc4ccccc43)c3c2c1CC3` [3-METHYLCHOLANTHRENE], the 50% inhibitory concentration (IC50) in assay [1] was determined as 300 nM. Molecule `c1ccc2c(c1)c1cccc3ccc4cccc2c4c31` [BENZO[E]PYRENE] came in with an IC50 in assay [1] of 100 nM.

On to `CC(C)[C@H]1C(=O)N2CCC[C@H]2[C@]2(O)O[C@](NC(=O)[C@@H]3C=C4c5cccc6[nH]cc(c56)C[C@H]4N(C)C3)(C(C)C)C(=O)N12` [ERGOCORNINE], for which the midpoint of inhibition in assay [2], the IC50, lay at 500 nM.

In assay [3], `C[C@]12CC[C@@H]3c4ccc(O)cc4CC[C@H]3[C@@H]1CCC2=O` [ESTRONE] displayed an IC50 of 11.6 µM and an inhibitory constant (Ki) of 7.74 µM. In assay [4], `C[C@]12CCC(=O)C=C1CC[C@@H]1[C@@H]2CC[C@@]2(C)[C@H]1CC[C@]2(C)O` [METHYLTESTOSTERONE] yielded an IC50 of 1840 nM and a Ki of 838 nM.
